Assay results as given in PubChem BioAssay AID687005 (Broad Institute, 2013).
Records with an inconclusive call do not appear. Calls of active or inactive are those of the source.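 The calls were made as follows: active = Compounds that reduce signal, with fitted half-maximal dose at or under twice the top valid tested dose; inconclusive = Poor fit, or flat curve losing 30 to 70% of signal; inactive = Potency past limit, flat within 30%, or opposite direction.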

Test: HEK293T cell cytotoxicity, dose response, cytotoxicity control, ATP luminescence, cherry-pick samples (AID 687005)
Conditions: HEK293T viability, ATP luminescence (CellTiter-Glo), 48 h; at 23.5 µM (top of the series)
For `C[C@H](CO)N1C[C@H](C)[C@H](CN(C)C(=O)Nc2cccc3ccccc23)Oc2ccc(NC(=O)Cc3ccccc3)cc2CC1=O`, the activity change, negative = cytotoxicity was 10.3% (inactive).
With `C[C@@H]1CCCCO[C@@H](CN(C)CC2CCCCC2)[C@@H](C)CN([C@@H](C)CO)C(=O)c2cc(NS(=O)(=O)c3ccccc3)ccc2O1` the activity change, negative = cytotoxicity was -40.3% (inactive).
For `C[C@H]1CN([C@@H](C)CO)C(=O)c2cc(NC(=O)Nc3ccc(F)cc3)ccc2O[C@@H]1CN(C)S(C)(=O)=O`, the activity change, negative = cytotoxicity was 2.53% (inactive).
In the case of `C[C@H](CO)N1C[C@H](C)[C@H](CN(C)CC2CCCCC2)Oc2ccc(NC(=O)Nc3ccc4c(c3)OCO4)cc2C1=O`, the activity change, negative = cytotoxicity is reported as -3.46% (inactive).
For `C[C@@H]1CN([C@H](C)CO)C(=O)c2cc(NS(=O)(=O)c3ccccc3)ccc2O[C@H]1CN(C)C(=O)NC1CCCCC1`, the activity change, negative = cytotoxicity was -10.5% (inactive).

Same assay, conditions: HEK293T viability, ATP luminescence (CellTiter-Glo), 48 h; at 26 µM (top of the series)
In the case of `Cc1noc(C)c1S(=O)(=O)N(C)C[C@H]1OCCCC[C@@H](C)Oc2ccc(NC(=O)CCCCCC(=O)Nc3ccccc3N)cc2C(=O)N([C@@H](C)CO)C[C@@H]1C`, the activity change, negative = cytotoxicity is reported as -1.73% (inactive).
With `C[C@@H]1CCCCO[C@H](CN(C)S(=O)(=O)c2cccs2)[C@@H](C)CN([C@@H](C)CO)C(=O)c2cc(NC(=O)CCC(F)(F)F)ccc2O1` the activity change, negative = cytotoxicity was 0.337% (inactive).
With `CCNC(=O)Nc1ccc2c(c1)C(=O)N(C)[C@H]1CC[C@H](CC(=O)N[C@@H](C)c3ccccc3)O[C@H]1CO2` the activity change, negative = cytotoxicity was 75.7% (inactive).
For `C[C@@H]1CCCCO[C@@H](CN(C)C(=O)Nc2cccc3ccccc23)[C@@H](C)CN([C@H](C)CO)C(=O)c2cc(NS(=O)(=O)c3ccccc3)ccc2O1`, the activity change, negative = cytotoxicity was 6.51% (inactive).
With `CC(=O)N1[C@H](CO)[C@H](c2ccc(-c3ccccc3)cc2)[C@H]1CNC(=O)C1CC1` the activity change, negative = cytotoxicity was -33.3% (inactive).
With `O=C(C[C@@H]1C=C[C@@H](NC(=O)Nc2cc(F)ccc2F)[C@H](CO)O1)NCCCN1CCOCC1` the activity change, negative = cytotoxicity was 0.247% (inactive).
For `COCCNC(=O)C[C@@H]1C[C@@H]2c3cc(NC(=O)C4CCOCC4)ccc3O[C@@H]2[C@@H](CO)O1`, the activity change, negative = cytotoxicity was -3.7% (inactive).
For `CC(C)NC(=O)N(C)C[C@H]1OCCCC[C@H](C)Oc2ccc(NC(=O)c3ccccc3)cc2C(=O)N([C@@H](C)CO)C[C@@H]1C`, the activity change, negative = cytotoxicity was 55.3% (inactive).
In the case of `C[C@@H]1CN([C@@H](C)CO)C(=O)CCCn2nncc2CO[C@@H]1CN(C)Cc1cccc(C(F)(F)F)c1`, the activity change, negative = cytotoxicity is reported as -9.87% (inactive).
With `CNC[C@@H]1Oc2ccc(NS(=O)(=O)c3ccc(Cl)cc3)cc2C(=O)N([C@H](C)CO)C[C@H]1C` the activity change, negative = cytotoxicity was 45.6% (inactive).
In the case of `Cc1cccc(C)c1NC(=O)C(CCc1ccccc1)N1CCC(c2ccccc2)CC1` (stereo not drawn), the activity change, negative = cytotoxicity is reported as -63.1% (inactive).
With `Cc1cccc(C)c1NC(=O)C(C)N1CCCC1` (stereo not drawn) the activity change, negative = cytotoxicity was -44.2% (inactive).
For `Fc1cccc(CCN2C(=S)NC[C@@H]2Cc2ccccc2)c1`, the activity change, negative = cytotoxicity was -28.1% (inactive).
For `O=C1CCC(C(=O)Nc2cccc3ccccc23)N1` (stereo not drawn), the activity change, negative = cytotoxicity was 25.1% (inactive).
With `O=C(Nc1cccc(F)c1)N[C@H]1CC[C@@H](CCNS(=O)(=O)c2cccc(Cl)c2)O[C@@H]1CO` the activity change, negative = cytotoxicity was -36.3% (inactive).
With `C[C@H]1CN([C@@H](C)CO)C(=O)Cc2cc(NS(=O)(=O)c3cn(C)cn3)ccc2O[C@@H]1CN(C)Cc1ccc(Oc2ccccc2)cc1` the activity change, negative = cytotoxicity was 28.9% (inactive).
In the case of `Cc1noc(C)c1NC(=O)Nc1cccc2c1O[C@H](CN(C)S(=O)(=O)c1cn(C)cn1)[C@H](C)CN([C@H](C)CO)C2=O`, the activity change, negative = cytotoxicity is reported as -29.5% (inactive).
For `COc1ccccc1CNC(=S)NCc1ccc(Cl)cc1`, the activity change, negative = cytotoxicity was 13.5% (inactive).
For `CNC[C@H]1OCCCC[C@H](C)Oc2ccc(NC(=O)CCCN(C)C)cc2C(=O)N([C@H](C)CO)C[C@@H]1C`, the activity change, negative = cytotoxicity was 15.7% (inactive).
In the case of `C[C@@H]1CN([C@@H](C)CO)C(=O)c2cc(N(C)C)ccc2O[C@@H]1CN(C)C(=O)Nc1ccc(C(F)(F)F)cc1`, the activity change, negative = cytotoxicity is reported as -29.4% (inactive).
For `O=C(NC[C@@H]1[C@H](c2ccccc2)[C@@H](CO)N1C(=O)Cc1cccnc1)C1CCC1`, the activity change, negative = cytotoxicity was 8.39% (inactive).
In the case of `C[C@H]1CN([C@@H](C)CO)C(=O)c2cccc(NS(C)(=O)=O)c2O[C@H]1CN(C)C(=O)Nc1ccc2c(c1)OCO2`, the activity change, negative = cytotoxicity is reported as 20.3% (inactive).
For `Cc1cc(C(=O)NC(=S)Nc2ccccc2N2CCCC2)ccc1[N+](=O)[O-]`, the activity change, negative = cytotoxicity was -6.6% (inactive).
With `CC(C)CC#Cc1cnc2c(c1)C(=O)N([C@H](C)CO)C[C@H](C)[C@@H](CN(C)Cc1cccc(F)c1)O2` the activity change, negative = cytotoxicity was -9.35% (inactive).
With `COc1cccc(-c2cn(CC[C@@H]3CC[C@@H](NC(C)=O)[C@H](CO)O3)nn2)c1` the activity change, negative = cytotoxicity was 53.3% (inactive).
With `CC(C)NC(=O)Nc1ccc2c(c1)C(=O)N([C@@H](C)CO)C[C@@H](C)[C@H](CN(C)C(=O)Cc1ccccc1)OCCCC[C@@H](C)O2` the activity change, negative = cytotoxicity was 37.8% (inactive).
For `Cc1noc(C)c1S(=O)(=O)Nc1ccc2c(c1)C(=O)N([C@H](C)CO)C[C@H](C)[C@H](CN(C)Cc1ccncc1)O2`, the activity change, negative = cytotoxicity was 37.8% (inactive).
For `COCCNC(=O)C[C@H]1CC[C@@H]2[C@H](COC[C@H](O)CN2S(=O)(=O)c2ccccc2C)O1`, the activity change, negative = cytotoxicity was 15.9% (inactive).
In the case of `C[C@@H](O)C#Cc1ccc([C@@H]2[C@H]3CN(CC4CC4)CCCCN3[C@H]2CO)cc1`, the activity change, negative = cytotoxicity is reported as 34.5% (inactive).
In the case of `COc1ccc(C(=O)NC(=S)Nc2ccccc2N2CCOCC2)cc1[N+](=O)[O-]`, the activity change, negative = cytotoxicity is reported as -32.3% (inactive).
With `CC(=O)N1[C@@H](CO)[C@H](c2ccc(-c3ccccc3)cc2)[C@@H]1CNC(=O)C1CC1` the activity change, negative = cytotoxicity was 13.9% (inactive).
With `O=C(C[C@@H]1CC[C@@H]2[C@H](COC[C@H](O)CN2Cc2cccc(C(F)(F)F)c2)O1)NCc1ccc(Cl)cc1` the activity change, negative = cytotoxicity was 9.32% (inactive).
In the case of `O=C1CCC(C(=O)Nc2cccc(C(F)(F)F)c2)N1` (stereo not drawn), the activity change, negative = cytotoxicity is reported as 22% (inactive).
With `CC(C)NC(=O)Nc1ccc2c(c1)CC(=O)N([C@@H](C)CO)C[C@@H](C)[C@@H](CN(C)Cc1ccc(Oc3ccccc3)cc1)O2` the activity change, negative = cytotoxicity was -58.4% (inactive).
In the case of `CC(=O)N1[C@@H]2CN(S(=O)(=O)c3ccccc3F)c3ccccc3[C@@H]2[C@@H]1CO`, the activity change, negative = cytotoxicity is reported as 5.73% (inactive).
For `C[C@@H](NC(=O)C[C@H]1CC[C@@H](NC(=O)Cc2ccccn2)[C@@H](CO)O1)c1ccccc1`, the activity change, negative = cytotoxicity was -16.9% (inactive).
With `C[C@H]1CN([C@@H](C)CO)C(=O)c2cc(C#CC3(O)CCCC3)cnc2O[C@@H]1CN(C)Cc1cccnc1` the activity change, negative = cytotoxicity was 13.8% (inactive).
For `Cc1noc(C)c1NC(=O)N(C)C[C@H]1Oc2ccc(N(C)C)cc2C(=O)N([C@H](C)CO)C[C@@H]1C`, the activity change, negative = cytotoxicity was -11.8% (inactive).
In the case of `Cc1ccccc1OCC(=O)NC(C)c1ccccc1` (stereo not drawn), the activity change, negative = cytotoxicity is reported as -29.9% (inactive).
For `CC(C)NC(=O)N[C@H]1CC[C@@H](CCNC(=O)C2CC2)O[C@@H]1CO`, the activity change, negative = cytotoxicity was -21.3% (inactive).

Same assay, conditions: HEK293T viability, ATP luminescence (CellTiter-Glo), 48 h; at 38 µM (top of the series)
With `Cc1ccc(NC(=O)C2(C)CCN2C(=O)CC2CCCC2)cc1` (stereo not drawn) the activity change, negative = cytotoxicity was -16.5% (inactive).

Same assay, conditions: HEK293T viability, ATP luminescence (CellTiter-Glo), 48 h; at 42 µM (top of the series)
With `CCC(=O)N1CCCC1(C)C(=O)Nc1ccc(C)c(C)c1` (stereo not drawn) the activity change, negative = cytotoxicity was -1.9% (inactive).
For `CCCC(=O)N1CCC1(C)C(=O)Nc1cc(C)ccc1C` (stereo not drawn), the activity change, negative = cytotoxicity was -18.3% (inactive).
